{
  "source": "paper PMC11711049",
  "about": "(Cancer Science, 2024)",
  "key": {"Plasma pharmacokinetics": {"experiment": "Plasma pharmacokinetics", "format": "in vivo, human", "details": "for AUC / Cmax / Tmax: human, plasma, oral, 140 mg, Steady state (cycle 1, day 8), 140 mg once daily; for AUC: AUC0–tau; for AUC / Cmax: mean ± SD; for Cmax: C max; for Tmax: t max, median (range)"}, "[1]": {"test_system": "gastric cancer with FGFR2 gene amplification or FGFR2 protein high expression", "experiment": "Investigator-assessed tumor response"}, "[2]": {"test_system": "models harboring FGFR genetic alterations", "details": "preclinical studies; cited from earlier work"}, "[3]": {"details": "Gastric cancer (N = 9), 140 mg once daily"}},
  "note": "“And” between values parts separate entries of the source, which are not always exact repeats. Identical values can stand only once.",
  "data": [
    {"smiles": "CNC(=O)n1ccc2cc(Oc3ccnc(NC(=O)c4ccc(C5CCN(CCO)CC5)cc4)c3)c(OCCOC)cc21", "note": "[Tasurgratinib]", "values": [
      {"measurement": "time to C max, median values", "setting": "Plasma pharmacokinetics; after the first dose and at a steady state, each tumor type", "result": "3 to 4", "unit": "h"},
      {"measurement": "AUC", "setting": "Plasma pharmacokinetics; Cholangiocarcinoma N = 6", "result": "1110 ± 660", "unit": "ng·h/mL"},
      {"measurement": "AUC", "setting": "Plasma pharmacokinetics; Gastric cancer N = 10", "result": "4270 ± 3730", "unit": "ng·h/mL"},
      {"measurement": "AUC", "setting": "Plasma pharmacokinetics; Total N = 16", "result": "3080 ± 3320", "unit": "ng·h/mL"},
      {"measurement": "Cmax", "setting": "Plasma pharmacokinetics; Cholangiocarcinoma N = 6", "result": "95.1 ± 66.2", "unit": "ng/mL"},
      {"measurement": "Cmax", "setting": "Plasma pharmacokinetics; Gastric cancer N = 10", "result": "294 ± 186", "unit": "ng/mL"},
      {"measurement": "Cmax", "setting": "Plasma pharmacokinetics; Total N = 16", "result": "219 ± 179", "unit": "ng/mL"},
      {"measurement": "Tmax", "setting": "Plasma pharmacokinetics; Cholangiocarcinoma N = 6", "result": 3.95, "unit": "h"},
      {"measurement": "Tmax", "setting": "Plasma pharmacokinetics; Gastric cancer N = 10", "result": 3.98, "unit": "h"},
      {"measurement": "Tmax", "setting": "Plasma pharmacokinetics; Total N = 16", "result": 3.97, "unit": "h"},
      {"measurement": "BOR: CR", "setting": "[1]; [3]", "result": "0 (0.0) n (%)"},
      {"measurement": "BOR: PD", "setting": "[1]; [3]", "result": "4 (44.4) n (%)"},
      {"measurement": "BOR: PR", "setting": "[1]; [3]", "result": "1 (11.1) n (%)"},
      {"measurement": "BOR: SD", "setting": "[1]; [3]", "result": "4 (44.4) n (%)"},
      {"measurement": "DCR (CR + PR + SD)", "setting": "[1]; [3]", "result": "5 (55.6) n (%)"},
      {"measurement": "ORR (CR + PR)", "setting": "[1]; [3]", "result": "1 (11.1) n (%)"},
      {"measurement": "OS rate (95% CI) at 6 months", "setting": "[1]; [3]", "result": "22.2 (3.4, 51.3) %"},
      {"measurement": "OS rate (95% CI) at 12 months", "setting": "[1]; [3]", "result": "11.1 (0.6, 38.8) %"},
      {"measurement": "OS, median (95% CI)", "setting": "[1]; [3]", "result": "4.27 months and 4.27 (2.23, 7.95) months"},
      {"measurement": "PFS rate (95% CI) at 6 months", "setting": "[1]; [3]", "result": "0.0 (NE, NE) %"},
      {"measurement": "PFS rate (95% CI) at 12 months", "setting": "[1]; [3]", "result": "0.0 (NE, NE) %"},
      {"measurement": "PFS, median (95% CI)", "setting": "[1]; [3]", "result": "3.25 months and 3.25 (0.95, 4.86) months"},
      {"measurement": "ORR", "setting": "[1]; evaluable gastric cancer patients, n = 9, 95% CI 0.3, 48.2", "result": 11.1, "unit": "%"},
      {"measurement": "partial responses", "setting": "[1]; gastric cancer patients, one partial response", "result": 11.1, "unit": "%"},
      {"measurement": "antitumor activity", "setting": "[2]", "result": "potent antitumor activity"}
    ]}
  ]
}
